According to US20260193283A1, “CARBOXAMIDE DERIVATIVE HAVING RSK INHIBITORY EFFECT, PHARMACEUTICAL COMPOSITION COMPRISING SAME, AND USE THEREOF” (KINOTECK THERAPEUTICS CO., LTD., priority 2022, published 2026):
pIC50: −log10 of the molar value.

Legend:
RSK2 kinase = molecular target: T1, RSK2 kinase (Homo sapiens, UniProt P51812); experiment: HTRF KinEASE-STK assay of RSK2 kinase inhibition in vitro; format: biochemical; conditions: 0.18 nM RSK2 recombinase, 10 μM ATP, read-out: IC50, in vitro inhibitory activity on RSK2 kinase
T1 construct: purchased Carna 01-150
T1 sequence (P51812 whole entry): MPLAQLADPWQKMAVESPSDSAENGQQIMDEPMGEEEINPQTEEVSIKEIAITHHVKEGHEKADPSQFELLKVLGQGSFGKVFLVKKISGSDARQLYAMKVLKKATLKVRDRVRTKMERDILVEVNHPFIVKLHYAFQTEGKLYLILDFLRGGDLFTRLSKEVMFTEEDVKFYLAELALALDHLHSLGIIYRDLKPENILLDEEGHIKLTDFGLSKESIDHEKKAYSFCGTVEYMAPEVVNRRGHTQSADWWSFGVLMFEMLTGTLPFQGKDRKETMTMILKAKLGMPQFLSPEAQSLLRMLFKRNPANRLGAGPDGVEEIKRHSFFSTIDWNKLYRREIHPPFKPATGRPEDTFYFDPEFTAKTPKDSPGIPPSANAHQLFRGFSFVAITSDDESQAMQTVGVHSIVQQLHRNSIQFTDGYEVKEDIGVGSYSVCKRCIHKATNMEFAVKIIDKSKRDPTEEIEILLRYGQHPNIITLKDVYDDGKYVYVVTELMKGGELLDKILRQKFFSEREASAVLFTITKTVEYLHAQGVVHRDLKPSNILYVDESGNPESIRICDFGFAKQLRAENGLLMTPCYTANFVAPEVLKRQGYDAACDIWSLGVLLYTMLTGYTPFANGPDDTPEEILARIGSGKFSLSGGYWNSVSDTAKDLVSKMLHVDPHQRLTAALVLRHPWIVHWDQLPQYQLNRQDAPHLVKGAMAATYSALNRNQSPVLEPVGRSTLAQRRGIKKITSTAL
Experimental: The inhibitory effect of small molecule compounds on RSK2 kinase was detected using HTRF KinEASE-STK assay. […] Specifically, firstly, 2.5×RSK2 recombinase and 5×inhibitor were added to a buffer system in a 384 well plate, and incubated at room temperature for 10 minutes, negative control wells without enzyme and positive control wells without compounds were set at the same time, then, 2.5×peptide substrate and ATP were added, and then the reaction began.

[1] = Pharmacokinetic study in mice; format: in vivo; conditions: mouse; male ICR mice, oral gavage administration, 10 mg/kg, plasma
Experimental: Pharmacokinetic experiments in mice were conducted using male ICR mice weighed 20-25 g, provided by the Experimental Animal Management Department of Shanghai Family Planning Scientific Research Institute. 3 mice were taken and fasted overnight, and then administered orally by gavage (10 mg/kg). Blood samples were collected before administration, at 15 and 30 minutes as well as 1, 2, 4, 8, and 24 hours after administration; in addition, another 3 mice were taken and administered intravenously (1 mg/kg), and blood samples were collected before administration, at 15 and 30 minutes as well as 1, 2, 4, 8, and 24 hours after administration. blood sample was centrifuged at 6800 g, 2-8° C. for 6 minutes, and then the plasma was collected and stored at −80° C. Plasma at each time point were added 10-20 times the amount of methanol or acetonitrile solution containing internal standard, and mixed by vortex for 1 minute, centrifuged at 18000 rpm at 4° C. for 10 minutes, and then the supernatant was taken to analyze by LC-MS/MS directly. The main pharmacokinetic parameters were analyzed using WinNonlin 7.0 software for non compartmental model analysis.

MDA-MB-453 cells = experiment: Triple negative breast cancer cell proliferation inhibition (CCK-8, 5 days); format: cell-based; conditions: Homo sapiens, 120 h, 5 days incubation, read-out: IC50, proliferation inhibitory activity on MDA-MB-453
Experimental: The compound or vehicle control (DMSO) was diluted in culture medium in a 96 well plate, with the final concentrations of 50, 25, 12.5, 6.25, 3.13, 1.56, 0.78, 0.39, 0.2, and 0.1 μM. 1×10^3 MDA-MB-453 cells were inoculated into each well, and the plate was incubated in the incubator for 5 days. After the incubation period, cell survival was quantified using Cell Counting Kit-8 (CCK-8) reagent. In short, the cells were incubated with CCK8 for 2-4 hours, and then the absorbance at 450 nm and 650 nm was measured. CCK-8 is WST-8 (chemical name: 2-(2-methoxy-4-nitrophenyl)-3-(4-nitrophenyl)-5-(2,4-disulfonate benzene)-2H tetrazole monosodium salt), which is reduced to a highly water-soluble yellow formazan dye by dehydrogenases in cells under the action of electron carrier 1-methoxy-5-methylphenazinium sulfate dimethyl ester (1-Methoxy PMS). The number of generated formazan dye substances is directly proportional to the number of live cells, so this characteristic can be used to calculate the survival percentage, as shown in the following equation:
[formula] • As: experimental well (the treatment wells containing cells, different concentrations of drug) • Ab: solvent control well (solvent treatment wells containing cells, 0 concentration of drug) • Ac: blank well (well without cells and drugs)
The cell survival rate data and corresponding compound concentrations were input into GraphPad Prism software to fit and calculate IC50 values.

Structure (SMILES) | pIC50 (RSK2 kinase) | other results
Cc1cc(NC(=O)c2ccc3cc4n(c3n2)[C@H](C)CNC4=O)nn1Cc1ccc(C(C)(C)O)nc1 [Compound 9] | 7.37 | –
C[C@@H]1CNC(=O)c2cc3ccc(C(=O)Nc4cnn(Cc5ccc(P(C)(C)=O)cc5)c4)nc3n21 [Compound 1, (R)—N-(1-(4-(dimethylphosphoryl)benzyl)-1H-pyrazol-4-yl)-9-methyl-6-oxo-6,7,8,9-tetrahydropyridino[3′, 2′: 4,5]pyrrolo [1,2-a]pyrazine-2-carboxamide] | 9.36 | –
C[C@@H]1CNC(=O)c2cc3ccc(C(=O)Nc4cnn(Cc5cnc(C(C)(C)O)c(F)c5)c4)nc3n21 [Compound 15, (R)—N-(1-((5-fluoro-6-(2-hydroxyprop-2-yl)pyridin-3-yl)methyl)-1H-pyrazol-4-yl)-9-methyl-6-oxo-6,7,8,9-tetrahydropyridino [3, 2′: 4,5]pyrrolo [1,2-a]pyrazine-2-carboxamide] | 10.10 | AUC(0-t) [1]: 99300 ng·h/mL; Cmax [1]: 22800 ng/mL; Tmax [1]: 30 min; half-life [1]: 131 min; pIC50 (MDA-MB-453 cells): 5.61
C[C@H]1Cn2c(cc3ccc(C(=O)Nc4cnn(Cc5ccc(C(C)(C)O)nc5)c4)nc32)C(=O)N1 [Compound 14] | 8.80 | –
C[C@@H]1CNC(=O)c2cc3ccc(C(=O)Nc4cnn(Cc5ccc(C6(O)CCC6)nc5)c4)nc3n21 [Compound 11] | 9.54 | –
C[C@@H]1CNC(=O)c2cc3ccc(C(=O)Nc4cnn(Cc5ccc(C(C)(C)O)nc5)c4)nc3n21 [Compound 5] | 9.46 | AUC(0-t) [1]: 35100 ng·h/mL; Cmax [1]: 17900 ng/mL; Tmax [1]: 15 min; half-life [1]: 94.2 min; pIC50 (MDA-MB-453 cells): 5.69
C[C@@H]1CNC(=O)c2cc3ccc(C(=O)Nc4cnn(Cc5ccc(N)cc5)c4)nc3n21.Cl [Control Compound II, reference compound] | 8.97 | AUC(0-t) [1]: 4610 ng·h/mL; Cmax [1]: 3420 ng/mL; Tmax [1]: 25.2 min; half-life [1]: 49.2 min; pIC50 (MDA-MB-453 cells): 5.34
C[C@@H]1CNC(=O)c2cc3ccc(C(=O)Nc4cnn(Cc5ccnc(C(C)(C)O)c5)c4)nc3n21 [Compound 4] | 9.38 | pIC50 (MDA-MB-453 cells): 5.57
C[C@@H]1CNC(=O)c2cc3cc(F)c(NC(=O)c4cnn(Cc5ccc(N)cc5)c4)nc3n21 [Compound 6, (R)-1-(4-aminobenzyl)-N-(3-fluoro-9-methyl-6-oxo-6,7,8,9-tetrahydropyridino [3′, 2″: 4,5]pyrrolo [1,2-a]pyrazin-2-yl)-1H-pyrazole-4-carboxamide] | 6.76 | –
C[C@@H]1CNC(=O)c2cc3ccc(C(=O)Nc4cnn(Cc5ccc(S(C)(=N)=O)cc5)c4)nc3n21 (some centres unmarked) [Compound 3] | 9.62 | –
C[C@@H]1NC(=O)c2cc3ccc(C(=O)Nc4cnn(Cc5ccc(C(C)(C)O)nc5)c4)nc3n2[C@@H]1C [Compound 12] | 9.37 | –
C[C@@H]1CNC(=O)c2cc3ccc(C(=O)Nc4cnn(Cc5ccc(C6(O)CC6)nc5)c4)nc3n21 [Compound 10] | 9.96 | –
C[C@@H]1CNC(=O)c2cc3ccc(C(=O)Nc4cnn(Cc5ccc(N)cc5)c4)c(F)c3n21 [Compound 7, (R)—N-(1-(4-aminobenzyl)-1H-pyrazol-4-yl)-6-fluoro-4-methyl-1-oxo-1,2,3,4-tetrahydropyrazino [1,2-a]indole-7-carboxamide] | 7.00 | –
CC(c1ccc(C(C)(C)O)nc1)n1cc(NC(=O)c2ccc3cc4n(c3n2)[C@H](C)CNC4=O)cn1 (stereo partly drawn) [Compound 8, (9R)—N-(1-(1-(6-(2-hydroxyprop-2-yl)pyridin-3-yl)ethyl)-1H-pyrazol-4-yl)-9-methyl-6-oxo-6,7,8,9-tetrahydropyridino [3′, 2′: 4,5]pyrrolo [1,2-a]pyrazine-2-carboxamide] | 9.10 | pIC50 (MDA-MB-453 cells): 5.25
C[C@@H]1NC(=O)c2cc3ccc(C(=O)Nc4cnn(Cc5cnc(C(C)(C)O)c(F)c5)c4)nc3n2[C@@H]1C [Compound 16, (8S, 9R)—N-(1-((5-fluoro-6-(2-hydroxyprop-2-yl)pyridin-3-yl)methyl)-1H-pyrazol-4-yl)-8,9-dimethyl-6-oxo-6,7,8,9-tetrahydropyridino [3′, 2′: 4,5]pyrrolo [1,2-a]pyrazine-2-carboxamide] | 10.10 | –
[2H]C([2H])([2H])C(O)(c1ccc(Cn2cc(NC(=O)c3ccc4cc5n(c4n3)[C@H](C)CNC5=O)cn2)cn1)C([2H])([2H])[2H] [Compound 17] | 9.66 | –
C[C@@H]1CNC(=O)c2cc3ccc(C(=O)Nc4cnn(Cc5ccc(N=S(C)(C)=O)cc5)c4)nc3n21 [Compound 2, (R)—N-(1-(4-((dimethyl (oxo)-λ^6-sulfanylidene)amino)benzyl)-1H-pyrazol-4-yl)-9-methyl-6-oxo-6,7,8,9-tetrahydropyridino [3′,2′: 4,5]pyrrolo [1,2-a]pyrazine-2-carboxamide] | 9.51 | –
C[C@@H]1CNC(=O)c2cc3ccc(C(=O)Nc4cnn(Cc5ccc(C(C)(C)O)nc5)c4)c(F)c3n21 [Compound 13] | 8.27 | –
